Experimental data taken from US12180187B2, “1-phenyl-5-azinylpyrazolyl-3-oxyalkyl acids and their use for controlling unwanted plant growth” (BAYER AKTIENGESELLSCHAFT, priority 2019, dated 2024).

Key:
VERPE = assay: Pre-emergence action against VERPE, 1280 g/ha; assay type: in vivo, Veronica persica; settings: scored visually after about 3 weeks vs untreated controls (100% = plants have died)
Summary of the method: (§1)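 In greenhouse pots of sandy loam, sown weed seeds were covered with soil and treated pre-emergence with the compound in water (600 L/ha, 0.5% additive). Efficacy was assessed visually as percent of untreated control after about 3 weeks.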

SETVI = assay: Post-emergence action at 320 g/ha against SETVI; assay type: in vivo, Setaria viridis; settings: visual rating about 3 weeks after treatment vs untreated controls
Summary of the method: (§2)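 Greenhouse-grown plants sprayed post-emergence at the one-leaf stage, 2 to 3 weeks after sowing, with WP or EC formulations plus 0.5% additive at 600 l/ha water, at 320 g/ha. Activity rated visually after about 3 weeks versus untreated controls (100% = plants died, 0% = like control).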

ECHCG = assay: Post-emergence action against ECHCG, 1.28 kg/ha; assay type: in vivo, Echinochloa crus-galli; settings: dosage 1280 g/ha, visual rating about 3 weeks after treatment vs untreated controls
Summary of the method: (§3)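 Spray at one-leaf stage with WP/EC + 0.5% additive, 600 L water/ha. Greenhouse, optimum conditions, ~3 wk. Visual % control vs untreated; 0 = no effect, 100 = dead.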

DIGSA = assay: Pre-emergence action against DIGSA, 1280 g/ha; assay type: in vivo, Digitaria sanguinalis; settings: visual scoring after about 3 weeks vs untreated controls, 100% = plants have died, 0% = like control plants
Summary of the method: as §1

ALOMY [1] = assay: Pre-emergence action against ALOMY, 1280 g/ha; assay type: in vivo, Alopecurus myosuroides; settings: visual scoring after about 3 weeks vs untreated controls, 100% = plants have died, 0% = like control plants
Summary of the method: as §1

ALOMY [2] = assay: Post-emergence action against ALOMY, 320 g/ha; assay type: in vivo, Alopecurus myosuroides; settings: dosage 320 g/ha, visual rating about 3 weeks after treatment vs untreated controls (100% = plants died)
Summary of the method: as §2

MATIN [3] = assay: Post-emergence action against MATIN, 1.28 kg/ha; assay type: in vivo, Tripleurospermum inodorum (Matricaria inodora); settings: dosage 1280 g/ha, visual rating about 3 weeks after treatment vs untreated controls (100% = plants died)
Summary of the method: as §3

MATIN [4] = assay: Pre-emergence action at 320 g/ha against MATIN; assay type: in vivo, Tripleurospermum inodorum (Matricaria inodora); settings: visual scoring after about 3 weeks vs untreated controls
Summary of the method: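 Percent herbicidal activity was assessed by eye roughly three weeks post-application, comparing with untreated plants. Treatment consisted of applying formulated compound in water plus 0.5% additive to covering soil at 600 l/ha before emergence.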

KCHSC [5] = assay: Pre-emergence action against KCHSC, 1280 g/ha; assay type: in vivo, Bassia scoparia; settings: scored visually after about 3 weeks vs untreated controls (100% = plants have died)
Summary of the method: as §1

KCHSC [6] = assay: Post-emergence action against KCHSC, 1.28 kg/ha; assay type: in vivo, Bassia scoparia; settings: dosage 1280 g/ha, visual rating about 3 weeks after treatment vs untreated controls (100% = plants died)
Summary of the method: as §3

| Compound | Pre-emergence action against VERPE (VERPE) [%] | Post-emergence action against SETVI in % (SETVI) [%] | Post-emergence action against ECHCG (ECHCG) [%] | Pre-emergence action against DIGSA (DIGSA) [%] | Pre-emergence action against ALOMY (ALOMY [1]) [%] | Post-emergence action against ALOMY (ALOMY [2]) [%] | Post-emergence action against MATIN (MATIN [3]) [%] | Pre-emergence action against MATIN in % (MATIN [4]) [%] | Pre-emergence action against KCHSC (KCHSC [5]) [%] | Post-emergence action against KCHSC (KCHSC [6]) [%] |
| --- | --- | --- | --- | --- | --- | --- | --- | --- | --- | --- |
| COC(=O)CNC(=O)COc1nn(-c2ccccc2F)c(-c2ccc(F)nc2)c1C(F)(F)F [Example X-007] | 100 | 80 | 100 | 100 | 100 | 100 | 90 | 100 | – | – |
| CCOC(=O)C(C)Oc1nn(-c2ccccc2F)c(-c2ccc(F)nc2)c1I (centres unmarked) [VII-057] | 100 | 80 | 100 | 100 | 100 | 80 | 100 | 90 | 100 | 90 |
| CCOC(=O)C(C)Oc1nn(-c2ccccc2F)c(-c2ccc(F)nc2)c1C(F)(F)F (centres unmarked) [VII-066] | 100 | – | 100 | 100 | 100 | 90 | 90 | 100 | – | 90 |
| O=C(COc1nn(-c2ccccc2F)c(-c2ccc(F)nc2)c1Br)OCC1CCOC1 (centres unmarked) [VII-091] | 100 | 80 | 100 | 100 | 100 | 90 | 90 | 90 | – | – |
| COC(=O)[C@H](C)Oc1nn(-c2cc(F)ccc2F)c(-c2ccc(F)nc2)c1Br [VII-107] | 100 | 80 | 100 | 100 | 90 | 90 | 100 | 90 | – | – |
| CCOC(=O)COc1nn(-c2ccccc2F)c(-c2ccc(F)nc2)c1C [VII-117] | 100 | 80 | 100 | 100 | 100 | 90 | 90 | 90 | – | – |
